Where two headings read alike, the source gives them in different places.
How the values were obtained:
[1] = Stability of NTI164 oil formulation at room temperature (UPLC)
[2] = test system: TNF-ALPHA; assay: TNF-alpha in microglial culture media, psylocibin combination (Example 9); type: cell-based; conditions: PBS control 1.00, positive activation I&I 10.67
Experimental: Microglia media harvested following treatment initiation was centrifuged briefly to remove particulates (300 g for 10 min). The level of TNFα in the microglial culture media was measured using a Bio-Plex 200 with a 96-well magnetic plate assay according to the manufacturer's instructions (Bio-Rad). The samples were run in duplicate that were averaged for analysis. At least three samples per group were run.

[3] = NTI164 oil, room temperature, Day 14

SMILES | Cannabinoid content of NTI164, Day 14 [1] [mg/mL] | Cannabinoid content of NTI164, Day 0 ([1]; NTI164 oil, room temperature) [mg/mL] | Cannabinoid content of NTI164, Day 2 ([1]; NTI164 oil, room temperature) [mg/mL] | Cannabinoid content of NTI164, Day 7 ([1]; NTI164 oil, room temperature) [mg/mL] | Cannabinoid content of NTI164, Day 28 ([1]; NTI164 oil, room temperature) [mg/mL] | Cannabinoid content of NTI164, Week 5 ([1]; NTI164 oil, room temperature) [mg/mL] | Cannabinoid content of NTI164, Week 6 ([1]; NTI164 oil, room temperature) [mg/mL] | Cannabinoid content of NTI164, Week 32 ([1]; NTI164 oil, room temperature) [mg/mL] | Cannabinoid content of NTI164, Day 14 [1, 3] [mg/mL] | TNF-alpha assessment result ([2]; 1 ug/ml) | TNF-alpha assessment result ([2]; 5 ug/ml)
CCCCCc1cc2c(c(O)c1C(=O)O)[C@@H]1C=C(C)CC[C@H]1C(C)(C)O2 [(Tetrahydrocannabinolic acid) (D9-THCA), Delta-9-tetrahydrocannabinolic acid] | 0.69 | 0.66 | 0.72 | 0.64 | 0.36 | 0.79 | 0.73 | <0.1 | – | – | –
CCCCCc1cc(O)c2c(c1)OC(C)(CCC=C(C)C)C=C2 (stereo not shown) [Cannabichrome(CBC), Cannabichromene] | – | 1.23 | 1.19 | 1.34 | 1.27 | 1.20 | 1.15 | 1.22 | 1.22 | – | –
C=C(C)[C@@H]1CCC(C)=C[C@H]1c1c(O)cc(CCCCC)c(C(=O)O)c1O [Cannabidiol acid (CBD-A), Cannabidiol acid] | – | 48.16 | 48.19 | 48.62 | 47.12 | 48.35 | 47.56 | 47.01 | 48.09 | – | –
C=C(C)[C@@H]1CCC(C)=C[C@H]1c1c(O)cc(CCC)cc1O [Cannabidivarin (CBDV), Cannabidivarin] | – | <0.1 | <0.1 | <0.1 | <0.1 | 0.10 | <0.1 | 0.13 | <0.1 | – | –
CCCCCc1cc(O)c(C/C=C(\C)CCC=C(C)C)c(O)c1 [Cannabigerol (CBG), Cannabigerol] | – | 5.21 | 5.23 | 5.14 | 5.1 | 5.30 | 5.28 | 5.12 | 5.1 | – | –
CCCCCc1cc(O)c(C/C=C(\C)CCC=C(C)C)c(O)c1C(=O)O [Cannabigerol Acid(CBG-A), Cannabigerolic acid] | – | 1.07 | 1.18 | 1.20 | 0.81 | 1.08 | 1.00 | 1.05 | 1.19 | – | –
CCCCCc1cc(O)c2c(c1)OC(C)(C)c1ccc(C)cc1-2 [Cannabinol (CBN), Cannabinol] | 2.33 | 2.32 | 2.54 | 2.48 | 2.56 | 2.22 | 2.27 | 2.21 | – | – | –
CCCCCc1cc(O)c2c(c1)OC(C)(C)C1CC=C(C)CC21 (stereo not shown) [DELTA-8-THC (D8-THC), Delta-8-tetrahydrocannabinol] | <0.1 | <0.1 | <0.1 | <0.1 | <0.1 | <0.1 | <0.1 | <0.1 | – | – | –
CN(C)CCc1c[nH]c2cccc(OP(=O)(O)O)c12 [SubP (Psylocibin), Psylocibin] | – | – | – | – | – | – | – | – | – | 4.87 | 9.17
CCCCCc1cc(O)c2c(c1)OC(C)(C)[C@@H]1CCC(C)=C[C@@H]21 [Tetrahydrocannabinol (D9-THC), Delta-9-tetrahydrocannabinol] | – | <0.1 | <0.1 | <0.1 | <0.1 | 0.14 | <0.1 | 0.11 | <0.1 | – | –
CCCc1cc(O)c2c(c1)OC(C)(C)[C@@H]1CCC(C)=C[C@@H]21 [Tetrahydrocannabivarin (THCV), Tetrahydrocannabivarin] | <0.1 | <0.1 | <0.1 | <0.1 | <0.1 | <0.1 | <0.1 | <0.1 | – | – | –

— patent US20260335341A1, “METHODS FOR TREATING PAEDIATRIC NEUROLOGICAL DISORDERS” (Neurotech International Limited, priority 2022, published 2026)
